Assays:
[1] = test system: κ and ε sites; conditions: brain; Chang et al., 1981; cited from earlier work
[2] = test system: ε receptors; assay: inhibition of cAMP formation in BHK cells expressing ε receptors; format: cell-based, human
[3] = test system: μ receptors; conditions: cited from earlier work
[4] = test system: enkephalins; conditions: peripheral administration; Bertolucci et al., 1992; cited from earlier work
[5] = test system: all known opioid receptor subtypes; conditions: cited from earlier work
[6] = biological target: T1, ε opioid receptor (Homo sapiens, UniProt P48145); assay: ligand affinity/interaction profile of the cloned receptor; format: binding
T1 construct: a 2 kb fragment was removed from the 5' untranslated region of the gene and the shortened insert (2.5 kb) was subcloned; expressed in transfected cells; host or cells: COS and BHK cells (pRC/CMV vector)
T1 sequence (P48145 1-328 S296T): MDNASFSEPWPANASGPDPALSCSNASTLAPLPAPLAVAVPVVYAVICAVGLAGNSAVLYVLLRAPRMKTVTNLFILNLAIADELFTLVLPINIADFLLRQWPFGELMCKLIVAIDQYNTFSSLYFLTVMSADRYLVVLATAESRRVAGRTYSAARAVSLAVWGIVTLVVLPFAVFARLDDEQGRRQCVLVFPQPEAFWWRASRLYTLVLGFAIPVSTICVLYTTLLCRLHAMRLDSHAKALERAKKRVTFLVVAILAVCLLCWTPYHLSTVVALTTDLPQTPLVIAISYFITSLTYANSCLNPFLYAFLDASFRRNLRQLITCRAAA

[7] = test system: U-69, 593 insensitive benzoinorphan site; conditions: Nock et al., 1993; cited from earlier work

## CC[C@]12CCN(CC3CC3)[C@H](C(=O)c3ccc(O)cc31)[C@@H]2C [ethylketocyclazocine]
[1]
  labelling of opioid binding sites (in words): label two populations of non-μ, non-δ opioid binding sites

## CN1CC[C@]23CCCC[C@H]2[C@H]1Cc1ccc(O)cc13 [levorphanol]
[2]
  inhibition of cAMP formation: inhibition of cAMP formation

## CN1CC[C@]23c4c5ccc(O)c4O[C@H]2[C@@H](O)C=C[C@H]3[C@H]1C5 [Morphine]
[3]
  interaction with μ receptors (in words): interacts principally with μ receptors
[4]
  release of enkephalins (in words): induces release of enkephalins

## CCC12CCN(CC3(O)CC3)C(Cc3ccc(O)cc31)C2(C)C (stereo not shown) [[^3 H]bremazocine]
[5]
  affinity for all known opioid receptor subtypes (in words): high affinity

## β-endorphin: endogenous opioid peptide with high affinity for the ε receptor
[6]
  affinity of the receptor for the ligand (in words): high affinity
[7]
  affinity for the U-69,593 insensitive site (in words): high affinity

Source: US5591602A (priority 1993, dated 1997)
